What all share (format): cell-based
Assay [1] relates to Aspergillus fumigatus. The assay can be described thus: FISP disc diffusion assay. On the set-up: key: F: clear zone, fuzzy edges; S: slightly hazy zone (some growth observed throughout zone); H: hazy zone (considerable growth observed throughout zone); V: very hazy zone (zone of inhibition is barely discernable); R: zone displays a ring of resistant growth; no qualifier: clear zone throughout, sharp edges. Particulars: 250 μg/ml in CH2Cl2. The source says:
(§1) The FISP assay employs disc diffusion susceptibility testing methods to generate a spectrum of activity against a panel of representative yeasts, filamentous fungi and bacteria.
(§2) The filamentous fungi used in the assay were Penicillium sp. Aspergillus niger, Trichoderma sp., Phoma sp., Trichoderma lignorum, Fusarium oxysporum, Ustilago maydis, Ceratocystis ulmi, Alternaria soloni, Verticillium serrae, Botrytis allii, Scopulariopsis communis, Cephalosporium sp., Cercospora beticola, Rhizomucor miehei, Aspergillus flavus and Aspergillus fumigatus.
(§3) For carrying out the assay, seeded assay plates are prepared in the following manner according to the type of assay strain.
(§4) Inocula for filamentous fungi are prepared by scraping the surface of stock plates maintained on potato dextrose agar with a moistened sterile dacron swab. The spores and mycelia are then suspended in 10 milliliters of sterile potato dextrose broth and adjusted to 65 percent transmission at 660 nm.
(§5) Assay plates for the yeasts and filamentous fungi are prepared by diluting the inoculum into appropriate molten agar medium, cooled to 45° C. to obtain a final concentration of 4 percent.
(§6) The seeded agar media thus prepared are dispensed into petri dishes for assays (11 ml per dish).
(§7) The samples to be tested for production of antifungal agent are applied to 6.2 mm filter paper discs (25 μl/disc) and air dried at 24° C. When the sample to be tested is crude broth, it may be centrifuged prior to application. The discs bearing the material to be tested are then applied employing sterile conditions to the seeded assay plates. The assay plates are then incubated at either 28° C. or 37° C. for 24 hours. In one of the assays for Bacillus subtilis, the sample is applied to a disc previously impregnated with 4M potassium chloride at 25 μl/disc and then air dried.
(§8) Following incubation, the inhibition zones are measured and recorded. The measurements are made from the extreme edge where growth differs from the background zone. The zones are noted as to appearance as fuzzy edge and clear center, hazy throughout, slightly hazy, very hazy or ringed.
(§9) FISP data is reported as the diameter (in mm.) of the zone of inhibition of growth in agar diffusion assays. The zone is determined by measuring growth that differs from the background lawn. A qualifier is also added to describe the zone quality as listed below: no qualifier: clear zone throughout, sharp edges

For another assay, the system named is Botrytis allii. The assay can be described thus: FISP disc diffusion assay. Particulars: 250 μg/ml in CH2Cl2. Further details: key: F: clear zone, fuzzy edges; S: slightly hazy zone (some growth observed throughout zone); H: hazy zone (considerable growth observed throughout zone); V: very hazy zone (zone of inhibition is barely discernable); R: zone displays a ring of resistant growth; no qualifier: clear zone throughout, sharp edges.
Excerpt: as §1, §2, §3, §4, §5, §6, §7, §8, §9

In another assay the test system is Cephalosporium sp. The assay can be described thus: FISP disc diffusion assay. The note with it: 250 μg/ml in CH2Cl2. Further details: key: F: clear zone, fuzzy edges; S: slightly hazy zone (some growth observed throughout zone); H: hazy zone (considerable growth observed throughout zone); V: very hazy zone (zone of inhibition is barely discernable); R: zone displays a ring of resistant growth; no qualifier: clear zone throughout, sharp edges.
Excerpt: as §1, §2, §3, §4, §5, §6, §7, §8, §9
For orientation: A growth-free zone around the sample is the usual read-out of agar diffusion tests.

Another assay relates to Ceratocystis ulmi. The assay can be described thus: FISP disc diffusion assay. Further details: key: F: clear zone, fuzzy edges; S: slightly hazy zone (some growth observed throughout zone); H: hazy zone (considerable growth observed throughout zone); V: very hazy zone (zone of inhibition is barely discernable); R: zone displays a ring of resistant growth; no qualifier: clear zone throughout, sharp edges. The note with it: 250 μg/ml in CH2Cl2.
Excerpt: as §1, §2, §3, §4, §5, §6, §7, §8, §9

A further assay deals with Fusarium oxysporum. The assay can be described thus: FISP disc diffusion assay. Further details: key: F: clear zone, fuzzy edges; S: slightly hazy zone (some growth observed throughout zone); H: hazy zone (considerable growth observed throughout zone); V: very hazy zone (zone of inhibition is barely discernable); R: zone displays a ring of resistant growth; no qualifier: clear zone throughout, sharp edges. Particulars: 250 μg/ml in CH2Cl2.
Excerpt: as §1, §2, §3, §4, §5, §6, §7, §8, §9

Another assay has as its system Scopulariopsis communis. The assay can be described thus: FISP disc diffusion assay. The note with it: 250 μg/ml in CH2Cl2. Further details: key: F: clear zone, fuzzy edges; S: slightly hazy zone (some growth observed throughout zone); H: hazy zone (considerable growth observed throughout zone); V: very hazy zone (zone of inhibition is barely discernable); R: zone displays a ring of resistant growth; no qualifier: clear zone throughout, sharp edges.
Excerpt: as §1, §2, §3, §4, §5, §6, §7, §8, §9

Assay [2] concerns Aspergillus fumigatus. The assay can be described thus: Microdilution broth assay. Particulars: strain MF 4839, 35° C., 48-72 hours, read-out: MIC (minimum inhibitory concentration). As to the method: (§10) The broad spectrum antifungal activity of the present compounds was further determined by broth dilution methods. The compounds are particularly active towards filamentous fungi and yeasts including Candida albicans and Crypt. neoformans. The sensitivity of filamentous fungi and yeasts was determined using inhibitor dilution assays in microtiter format. A standardized spore suspension for testing the filamentous fungi was prepared by inoculating sterile distilled water with spores such that 1.5-7.5×10^3 colony forming units were added per well. The microtiter wells were filled with 75 μl of yeast nitrogen base containing 1% Dextrose medium (YNB/D) containing compound. Fifty μl of inoculated YNB/D medium was then added to the wells.
(§11) The sensitivity of yeasts was determined by inoculating sterile distilled water with aliquots of a 4-hour yeast culture grown in Yeast Morphology (YM) media at 35° C. and diluting in YNB/D to yield a final concentration of 1.5-7.5×10^3 colony forming units/well. Seventy-five μl of inoculated media was added per well. To test the sensitivity of yeast, compound was solubilized in 10 percent aqueous DMSO at 2.56 mg/ml. The compound was diluted serially in YNB/D from 128 to 0.06 μg/ml. The wells were filled with 75 μl of drug containing media. […] Representative of the antifungal activity are the minimum inhibitory concentration and minimum fungicidal concentration data shown below in Table II: […]

For the next assay, the system named is Candida albicans. The assay can be described thus: Microdilution broth assay. Particulars: 35° C., 24 to 48 hours. The protocol:
as §10, §11
(In general: Broth dilution looks for growth in wells or tubes with falling amounts of substance.)

The test system of another assay is Candida guilliermondii. The assay can be described thus: Microdilution broth assay. The note with it: Meyerozyma guilliermondii; strain MY 1019; 35° C., 24 to 48 hours; read-out: MIC (minimum inhibitory concentration). As to the method:
as §10, §11

Another assay relates to Candida parapsilosis. The assay can be described thus: Microdilution broth assay. The note with it: Lodderomyces parapsilosis; strain MY 1010; 35° C., 24 to 48 hours; read-out: MIC (minimum inhibitory concentration). The protocol:
as §10, §11

The subject of the next assay is Candida tropicalis. The assay can be described thus: Microdilution broth assay. The note with it: strain MY 1012, 35° C., 24 to 48 hours, read-out: MIC (minimum inhibitory concentration). As to the method:
as §10, §11

For the next assay, the system named is Saccharomyces cerevisiae. The assay can be described thus: Microdilution broth assay. The note with it: strain MY 1976, 35° C., 24 to 48 hours, read-out: MIC (minimum inhibitory concentration). As to the method:
as §10, §11

Another assay relates to T. mentagrophytes. The assay can be described thus: Microdilution broth assay. The note with it: Trichophyton mentagrophytes; strain MF 4864; 35° C., 48-72 hours; read-out: MIC (minimum inhibitory concentration). The protocol:
as §10, §11

Converted amounts (≈) assume the structure as drawn.

As for `CC(/C=C/C=C(\C)C(O)C(C)C(=O)O[C@H]1C[C@H](C)C=C2C=C[C@@]3(C)O[C@@H](O)CC(=O)[C@]3(C)[C@H]21)=C\C=C\C(=O)O` (some centres unmarked) [Compound A], the zone quality qualifier result is on record as “S” in the assay on Aspergillus fumigatus [1]; “S” in the assay on Botrytis allii; “F” in the assay on Cephalosporium sp.; “V” in the assay on Ceratocystis ulmi; “S” with Fusarium oxysporum; “F” in the assay on Scopulariopsis communis. The MIC was 64 µg/mL (≈ 118 µM) in the assay with Aspergillus fumigatus [2]; not above 0.06 µg/mL in the assay on Candida albicans (Candida albicans, strain MY 1055, read-out: MIC (minimum inhibitory concentration)); more than 128 µg/mL with Candida guilliermondii; 0.25 µg/mL (≈ 0.462 µM) with Candida parapsilosis; not above 0.06 µg/mL with Candida tropicalis; more than 128 µg/mL with Saccharomyces cerevisiae. In addition, the MIC with T. mentagrophytes was 32 µg/mL (≈ 59.2 µM). Also, the “MIC (minimum inhibitory concentration)” value in the assay with Candida albicans (strain MY 1028) is not above 0.06 µg/mL.

The record behind these values is patent US5244795A, “Processes for preparing cholesterol lowering compounds” (Merck & Co., Inc., priority 1992, dated 1993).
